Results reported in PMC11678869, “Functional Role of Odorant-Binding Proteins in Response to Sex Pheromone Component Z8-14:Ac in Grapholita molesta (Busck)” (Insects, 2024).

Legend:
[1] = target: rGmolGOBP1 (Grapholita molesta, UniProt H9XTU5); assay: Fluorescence competitive binding assay with 1-NPN probe
From the text: (§1) Previous researchers have successfully expressed rGmolPBP1, rGmolPBP2, rGmolPBP3, rGmolGOBP1, and rGmolGOBP2 proteins using prokaryotic expression systems. In this article, the DNA sequences of these five GmolPBPs and GmolGOBPs, with the signal peptides removed and restriction sites on both ends, were inserted into the expression vector pET28a(+) linearized with the same restriction enzyme. These vectors were then transformed into Escherichia coli BL21(DE3) and induced by isopropyl-β-d-thiogalactoside (IPTG). Since all five recombinant proteins were expressed in inclusion bodies, they were denatured using 8 M urea and then renatured using a cysteine/cystine REDOX system. The reduced recombinant proteins were purified using an Ni-NTA His Bind Resin column (7Sea Pharmatech Co., Ltd., Shanghai, China). Non-target proteins were washed off with washing buffer (20 mM Tris-HCl (pH 7.4), 20 mM imidazole, 1 mM PMSF, and 250 mM NaCl), and then the target proteins were eluted with elution buffer (20 mM Tris-HCl (pH 7.4), 1 mM PMSF, and 250 mM NaCl) with an increasing concentration of imidazole (50, 100, and 200 mM). Five milliliters of eluents with high target protein content and low levels of contaminants were collected and placed in dialysis tubing (Coolaber, Beijing, China) with a molecular weight cut-off of 3.5 kDa to remove NaCl and imidazole. The purified soluble proteins were stored at −80 °C before use.
(§2) The binding affinities of three rGmolPBPs and two rGmolGOBPs for Z8-14:Ac were determined using an F-2700 fluorescence spectrophotometer (Hitachi, Tokyo, Japan). First, we measured the dissociation constants (Kd) of the rGmolPBPs (or rGmolGOBPs) binding to 1−NPN. Each protein was diluted to 2 μM with 20 mM Tris-HCl buffer (pH 7.4); then, 2 mL of the protein solution was transferred to a quartz cuvette and titrated with 1 mM 1−NPN to a final concentration of 1–18 μM. As the doses of 1−NPN were increased, the increasing amplitude of the fluorescence intensity decreased, and finally, the binding of the protein to 1−NPN reached saturation. The Kd values were calculated using the nonlinear regression method and the Scatchard equation. Second, we measured the inhibitory constant (Ki) of Z8-14:Ac’s competitive binding with each rGmolPBP (or rGmolGOBP) from the protein/1−NPN complex. The initial fluorescence intensity values were measured after a 2 min reaction in 2 mL solution of 20 mM Tris-HCl (pH 7.4) containing 2 µM rGmolPBP (or rGmolGOBP) protein and 2 µM 1−NPN. Then, the solution was titrated with aliquots of 1 mM Z8-14:Ac to obtain final concentrations in the range of 1–14 µM, and the fluorescence intensity value of each reaction was recorded. The Ki values were calculated using the following equation: Ki = [IC50]/(1 + [1 − NPN]/Kd) where IC50 is the concentration of Z8-14:Ac when half of the initial fluorescence intensity value of the rGmolPBP (or GmolGOBP)/1−NPN complex is replaced, [1 − NPN] represents the concentration of free 1−NPN, and Kd is the dissociation constant of the rGmolPBP (or GmolGOBP)/1−NPN complex.

[2] = target: rGmolGOBP2 (Grapholita molesta, UniProt H9XTU6); assay: as above
rGmolGOBP2, sequence (H9XTU6 entry or part of it): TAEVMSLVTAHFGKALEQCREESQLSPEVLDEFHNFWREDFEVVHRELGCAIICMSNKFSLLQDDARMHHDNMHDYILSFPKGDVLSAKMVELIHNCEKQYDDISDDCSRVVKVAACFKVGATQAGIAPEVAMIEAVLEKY
From the text: as §1, §2

[3] = target: rGmolPBP3 (Grapholita molesta, UniProt A0A059VBP3); assay: as above
rGmolPBP3, sequence (A0A059VBP3 entry or part of it): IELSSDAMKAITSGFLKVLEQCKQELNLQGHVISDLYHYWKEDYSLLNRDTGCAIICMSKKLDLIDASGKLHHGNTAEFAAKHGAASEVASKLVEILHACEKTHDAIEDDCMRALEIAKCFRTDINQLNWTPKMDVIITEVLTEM
From the text: as §1, §2

[4] = target: rGmolPBP1 (Grapholita molesta, UniProt A0A2R4SBD6); assay: as above
rGmolPBP1, sequence (A0A2R4SBD6 entry or part of it): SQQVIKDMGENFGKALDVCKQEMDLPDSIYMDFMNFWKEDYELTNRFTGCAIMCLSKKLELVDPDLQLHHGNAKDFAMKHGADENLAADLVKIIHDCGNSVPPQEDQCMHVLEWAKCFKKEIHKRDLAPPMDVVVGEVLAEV
From the text: as §1, §2

[5] = target: rGmolPBP2 (wild-type) (Grapholita molesta, UniProt A0A059VC28); assay: as above
rGmolPBP2 (wild-type), sequence (A0A059VC28 entry or part of it): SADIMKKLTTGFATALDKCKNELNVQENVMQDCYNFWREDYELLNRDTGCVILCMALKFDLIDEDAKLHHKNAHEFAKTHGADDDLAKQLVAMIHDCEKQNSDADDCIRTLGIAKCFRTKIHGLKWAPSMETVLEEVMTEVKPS
From the text: as §1, §2

[6] = test system: OFM male antennae; assay: Electroantennogram (EAG) analysis; design: species or system Grapholita molesta; details: for EAG response of OFM males: 20, 200 and 2000 μg doses
Experimental: (§3) Electroantennogram (EAG) equipment (Syntech, Hilversum, The Netherlands) was used to record the antennal responses of the OFM and PFM adults to Z8-12:Ac, E8-12:Ac, Z8-12:OH, Z8-14:Ac, and Z10-14:Ac. These sex pheromone compounds were diluted with liquid paraffin to prepare a stimulus solution of 100 μg/μL, which was subsequently diluted to 10 and 1 μg/μL. Antenna from 3-day-old OFM and 2- to 4-day-old PFM virgin males were excised at its base, with the distal part of the terminal segment being removed. Then, the treated antenna was attached to electrode holders with SpectraR360 conducting gel. A stimulus controller (model CS-55, Syntegon Technology, Waiblingen, Germany) continuously supplied a humidified air stream at a rate of 500 mL/min. Then, 20 μL of each stimulus solution was adsorbed onto a twice-folded filter paper strip (0.5 cm × 4 cm) placed on the wide section of a l mL pipette tip, which served as an odorant cartridge. Vapor stimuli were delivered by an air compressor into the constant air stream described above, flowing in a copper delivery tube (i.d. 8 mm) with the outlet positioned approximately 1 cm from the antenna. The EAG amplitude tests of the OFM and PFM males’ responses to sex pheromones started with solvent control stimuli (20 μL of liquid paraffin), followed by stimulation with 20, 200, and 2000 μg doses (20 μL of 1.0, 10.0, and 100.0 μg/μL of liquid paraffin solutions, respectively) of stimulus in sequence. The solvent control was performed at the end of the run. To control for variations among antennae, each sample was tested on 10 antennae of different males. The EAG signals and data were analyzed using EAG 2000 software (Syntech, Hilversum, The Netherlands). The corrected EAG amplitude value = absolute EAG amplitude value − (EAGck1 + EAGck2)/2, where EAGck1 and EAGck2 represent the absolute EAG amplitude values of the solvent control before and after measuring each stimulus, respectively. The relative EAG response of the OFM and PFM males to the same doses of sex pheromones were subjected to an analysis of independent sample t-test (p = 0.05) using SPSS version 23.0 (IBM).

[7] = test system: PFM male antennae; assay: Electroantennogram (EAG) analysis; design: species or system Grapholita funebrana; details: 20, 200 and 2000 μg doses
Experimental: as §3

[8] = test system: OFM males; assay: Field trapping with delta traps, pear orchard; format: in vivo, Grapholita molesta; details: pear orchard; for Inhibition Rate of OFM Males: vs 100:4:0
Experimental: (§4) To determine the inhibitory effects on OFM male adults and the impact on the trapping effects of PFM male adults, varying amounts of Z8-14:Ac (0, 5, 10, 25, 50, 75, 100, 125, 150 μg) or Z10-14:Ac (0, 25, 50, 100, 150, 250, 350, 450, and 550 μg) were added to rubber septa loaded with a constant dosage of the main pheromone (500 μg of Z8-12:Ac and 20 μg of E8-12:Ac) of the PFM. Trapping experiments of Z8-14:Ac were carried out in peach and pear orchards in Yan’an and Xinjiang (China), respectively. Trapping tests of Z10-14:Ac were performed in pear orchards in Xinjiang (China). Each orchard had nine plots, with three plots in one field. Each plot consisted of a linear arrangement of traps loaded with a constant dosage of the main pheromones and different percentages of the secondary pheromone Z8-14:Ac or Z10-14:Ac of the PFM. Plots in the same field were placed 30 m apart, and fields were ≥1 km apart. The traps were hung 1.4 m from the ground on a suspension bracket between two rows of peach or pear trees from 10 June to 25 July 2021 in Xinjiang and from 15 June to 30 July 2021 in Yan’an. The positions of the traps within the plot were randomly arranged. Every 5 days, counts were taken, and the traps were rotated to the adjacent position to avoid any potential position effects. The septa loaded with sex pheromone components were replaced with new ones after every 15 days of suspension. The data were analyzed using a one-way ANOVA, and the differences in the average trapping of OFM and PFM males using sex attractants containing different amounts of Z8-14:Ac or Z10-14:Ac were further analyzed using Tukey’s HSD test, both of which were performed using SPSS 23.0.

[9] = test system: PFM males; assay: Field trapping with delta traps, pear orchard; format: in vivo, Grapholita funebrana
Experimental: as §4

[10] = Z8-12:Ac/E8-12:Ac/Z10-14:Ac 500/20/25 μg (100:4:5)
[11] = Z8-12:Ac/E8-12:Ac/Z10-14:Ac 500/20/50 μg (100:4:10)
[12] = Z8-12:Ac/E8-12:Ac/Z10-14:Ac 500/20/100 μg (100:4:20)
[13] = Z8-12:Ac/E8-12:Ac/Z10-14:Ac 500/20/150 μg (100:4:30)
[14] = Z8-12:Ac/E8-12:Ac/Z10-14:Ac 500/20/250 μg (100:4:50)
[15] = Z8-12:Ac/E8-12:Ac/Z10-14:Ac 500/20/350 μg (100:4:70)
[16] = Z8-12:Ac/E8-12:Ac/Z10-14:Ac 500/20/450 μg (100:4:90)
[17] = Z8-12:Ac/E8-12:Ac/Z10-14:Ac 500/20/550 μg (100:4:110)
[18] = more than 10% of Z10-14:Ac added to Z8-12:Ac and E8-12:Ac (100:4)

rGmolGOBP1, sequence (H9XTU5 entry or part of it): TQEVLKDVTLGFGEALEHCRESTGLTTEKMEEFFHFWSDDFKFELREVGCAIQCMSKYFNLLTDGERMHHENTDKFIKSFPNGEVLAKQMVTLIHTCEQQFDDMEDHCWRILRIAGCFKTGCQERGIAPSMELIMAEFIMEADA

## c1ccc(Nc2cccc3ccccc23)cc1 [1−NPN, N-Phenyl-1-naphthylamine, reference compound]
[1]
  Kd: 5.76 ± 0.01 µM
[2]
  Kd: 4.32 ± 0.02 µM
[3]
  Kd: 11.24 ± 0.08 µM
[4]
  Kd: 1.29 ± 0.02 µM
[5]
  Kd: 1.09 ± 0.02 µM

## CCC/C=C/CCCCCCCOC(C)=O [E8-12:Ac, (E)-8-dodecenyl acetate]
[6]
  EAG response of OFM males: higher sensitivity
[7]
  EAG response of PFM males: higher sensitivity

## CCC/C=C\CCCCCCCOC(C)=O [Z8-12:Ac, (Z)-8-dodecenyl acetate]
[6]
  EAG response of OFM males: higher sensitivity
[7]
  EAG response of PFM males: higher sensitivity

## CCC/C=C\CCCCCCCCCOC(C)=O [Z10-14:Ac, (Z)-10-tetradecenyl acetate]
[8]; [10]
  Total OFM Males/Trap: 125.55 ± 14.47 ab Males/Trap
  Inhibition Rate of OFM Males: 35.04%
[8]; [11]
  Total OFM Males/Trap: 97.92 ± 10.31 bc Males/Trap
  Inhibition Rate of OFM Males: 49.34%
[8]; [12]
  Total OFM Males/Trap: 83.33 ± 9.82 cd Males/Trap
  Inhibition Rate of OFM Males: 56.89%
[8]; [13]
  Total OFM Males/Trap: 33.56 ± 2.24 e Males/Trap
  Inhibition Rate of OFM Males: 82.64%
[8]; [14]
  Total OFM Males/Trap: 31.28 ± 3.22 e Males/Trap
  Inhibition Rate of OFM Males: 83.82%
[8]; [15]
  Total OFM Males/Trap: 37.49 ± 3.45 e Males/Trap
[8]; [16]
  Total OFM Males/Trap: 23.64 ± 1.23 e Males/Trap
  Inhibition Rate of OFM Males: 87.77%
[8]; [17]
  Total OFM Males/Trap: 29.69 ± 2.18 e Males/Trap
  Inhibition Rate of OFM Males: 84.64%
[8]; [18]
  maximum reduction of the capture of OFM males: up to 87.77%
[6]; 20 μg
  EAG values of OFM males compared with PFM males: absence of significant difference
[6]
  EAG response of OFM males: moderate EAG response
[6]; 200 and 2000 μg
  EAG values of OFM males compared with PFM males: significantly greater than that of PFM males
[7]
  EAG response of PFM males: moderate EAG response
[9]; [10]
  Total PFM Males/Trap: 121.32 ± 12.10 ab Males/Trap
[9]; [11]
  Total PFM Males/Trap: 101.39 ± 7.72 b Males/Trap
[9]; [12]
  Total PFM Males/Trap: 102.73 ± 10.21 b Males/Trap
[9]; [13]
  Total PFM Males/Trap: 66.08 ± 8.27 c Males/Trap
[9]; [14]
  Total PFM Males/Trap: 62.46 ± 5.63 c Males/Trap
[9]; [15]
  Total PFM Males/Trap: 51.35 ± 7.21cd Males/Trap
[9]; [16]
  Total PFM Males/Trap: 41.24 ± 5.10 d Males/Trap
[9]; [17]
  Total PFM Males/Trap: 42.33 ± 3.95 d Males/Trap
[9]; [18]
  maximum reduction of the capture of PFM males: ≤ 71.07%
